The results in this text go back to EP3057951B1, “METHYLENE LINKED QUINOLINYL MODULATORS OF ROR-GAMMA-T” (Janssen Pharmaceutica NV, priority 2013, dated 2015).

Where “and” joins values, the source holds several entries; their conditions need not be identical. Equal entries are not always repeated.

Test [1] has as its target T1, wild type human RORγt ligand binding domain (RORyt LBD) (Homo sapiens, UniProt P51449).
T1 construct: His-tag (N); TurboTEV protease cleavage site (ENLYFQG) (N); made in house; host or cells: E. coli (pHIS1, modified pET vector)
T1 sequence (P51449 258-518): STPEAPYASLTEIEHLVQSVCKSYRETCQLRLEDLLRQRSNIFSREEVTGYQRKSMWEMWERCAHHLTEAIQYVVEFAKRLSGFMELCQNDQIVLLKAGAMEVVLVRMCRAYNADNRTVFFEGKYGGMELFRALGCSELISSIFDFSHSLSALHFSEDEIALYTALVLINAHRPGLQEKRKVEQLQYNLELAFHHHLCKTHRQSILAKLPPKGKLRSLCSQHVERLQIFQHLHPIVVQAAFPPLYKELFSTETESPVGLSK
Put plainly: RORγt ThermoFluor assay (thermal shift, binding affinity KD). (DSF heats the sample and reads unfolding from a dye or from intrinsic fluorescence.)

Test [2] concerns the target T2, wild type human RORγt LBD (Homo sapiens, UniProt P51449).
T2 construct: expressed in transfected cells; host or cells: HEK293T
T2 sequence (P51449 258-518): T1 sequence (P51449 258-518)
Put plainly: RORγt (LBD) Reporter Assay (GAL4-luciferase, HEK293T cells). Particulars: HEK293T cells; for RORγt (LBD) Reporter Assay, % inhibition @ 6 µM: 6 µM compound concentration; for inhibition at 6 µM: HEK-293T, read-out: RORγt (LBD) Reporter Assay, % inhibition @ 6 µM, 6 µM compound concentration. Format: cell-based.

In general, Kd refers to the free concentration of one partner at which half of the binding sites on the other are occupied at equilibrium, for simple one-to-one binding. As a reminder, the IC50 is the concentration needed to halve the response being measured. A higher IC50 goes with weaker potency. On to `Cn1cncc1C(O)(c1ccc(Cl)cc1)c1ccc2nc(N3CCC3)c(Cc3ccc(-n4cccn4)cc3)c(Cl)c2c1` (single isomer, unassigned) [Example 138c, {2-Azetidin-1-yl-4-chloro-3-[4-(1H-pyrazol-1-yl)benzyl]quinolin-6-yl}(4-chlorophenyl)(1-methyl-1H-imidazol-5-yl)methanol], for which the Kd in test [1] was found to be 32 nM. Further, in test [2], the “RORγt (LBD) Reporter Assay, % inhibition @ 6 µM” value (“RORγt … % inhibition @ 6 µM” below) turned out to be 96% and it took 75 nM to reach half-maximal inhibition (IC50).

`Cc1ccc(C(O)(c2ccc3nc(N4CCC4)c(Cc4ccc(C(F)(F)F)cc4)c(Cl)c3c2)c2cnnn2C)c(C)n1` (single isomer, unassigned) [Example 140b, {2-Azetidin-1-yl-4-chloro-3-[4-(trifluoromethyl)benzyl]quinolin-6-yl}(2,6-dimethylpyridin-3-yl)(1-methyl-1H-1,2,3-triazol-5-yl)methanol]: the dissociation constant Kd in test [1] came to 130 nM. In test [2], the IC50 was about 100 nM and the inhibition at 6 µM came to 101%.

As to `Cc1ccc(C(O)(c2ccc3nc(N4CCC4)c(Cc4ccc(C(F)(F)F)cc4)c(Cl)c3c2)c2cnnn2C)c(C)n1` (single isomer, unassigned) [Example 140c, {2-Azetidin-1-yl-4-chloro-3-[4-(trifluoromethyl)benzyl]quinolin-6-yl}(2,6-dimethylpyridin-3-yl)(1-methyl-1H-1,2,3-triazol-5-yl)methanol], in test [1], the Kd was determined as 0.15 nM. Besides, in test [2], the “RORγt … % inhibition @ 6 µM” value amounted to 99%; the half-maximal inhibitory concentration (IC50) was 0.66 nM and ~1 nM.

As for `Cc1ccc(C(O)(c2ccc3nc(N4CCC4)c(Cc4ccc(-n5cccn5)cc4)c(Cl)c3c2)c2cnnn2C)c(C)n1` (single isomer, unassigned) [Example 141b, {2-Azetidin-1-yl-4-chloro-3-[4-(1H-pyrazol-1-yl)benzyl]quinolin-6-yl}(2,6-dimethylpyridin-3-yl)(1-methyl-1H-1,2,3-triazol-5-yl)methanol], the Kd in test [1] came to 17000 nM. Moreover, in test [2], the “RORγt … % inhibition @ 6 µM” value is reported as 20% and the IC50 is over 6000 nM.

On to `Cc1ccc(C(O)(c2ccc3nc(N4CCC4)c(Cc4ccc(-n5cccn5)cc4)c(Cl)c3c2)c2cnnn2C)c(C)n1` (single isomer, unassigned) [Example 141c, {2-Azetidin-1-yl-4-chloro-3-[4-(1H-pyrazol-1-yl)benzyl]quinolin-6-yl}(2,6-dimethylpyridin-3-yl)(1-methyl-1H-1,2,3-triazol-5-yl)methanol], for which the Kd in test [1] is 7100 nM. Besides, in test [2], the “RORγt … % inhibition @ 6 µM” value was determined as 5% and the IC50 was over 6000 nM.

As to `Cc1ccc(C(O)(c2ccc3nc(NC4CC4)c(Cc4ccc(C(F)(F)F)cc4)c(Cl)c3c2)c2cnnn2C)c(C)n1` (single isomer, unassigned) [Example 143b, {4-Chloro-2-(cyclopropylamino)-3-[4-(trifluoromethyl)benzyl]quinolin-6-yl}(2,6-dimethylpyridin-3-yl)(1-methyl-1H-1,2,3-triazol-5-yl)methanol], in test [1], the Kd was 1700 nM. Further, in test [2], half-maximal inhibition (IC50) required 1600 nM and the inhibition at 6 µM worked out at 93%.

Turning to `Cc1ccc(C(O)(c2ccc3nc(NC4CC4)c(Cc4ccc(C(F)(F)F)cc4)c(Cl)c3c2)c2cnnn2C)c(C)n1` (single isomer, unassigned) [Example 143c, {4-Chloro-2-(cyclopropylamino)-3-[4-(trifluoromethyl)benzyl]quinolin-6-yl}(2,6-dimethylpyridin-3-yl)(1-methyl-1H-1,2,3-triazol-5-yl)methanol], the Kd in test [1] came out at 2.2 nM. Besides, in test [2], the “RORγt … % inhibition @ 6 µM” value was 102% and the IC50 is about 10 nM.

Regarding `Cc1ccc(C(O)(c2ccc3nc(Cl)c(Cc4ccc(C(F)(F)F)cc4)c(NC4CC4)c3c2)c2cnnn2C)c(C)n1` (single isomer, unassigned) [Example 144b, {2-Chloro-4-(cyclopropylamino)-3-[4-(trifluoromethyl)benzyl]quinolin-6-yl}(2,6-dimethylpyridin-3-yl)(1-methyl-1H-1,2,3-triazol-5-yl)methanol], the Kd in test [1] turned out to be 2300 nM. For the same compound, in test [2], the “RORγt … % inhibition @ 6 µM” value stood at 69% and the IC50 is about 3700 nM.

In the case of `Cc1ccc(C(O)(c2ccc3nc(Cl)c(Cc4ccc(C(F)(F)F)cc4)c(NC4CC4)c3c2)c2cnnn2C)c(C)n1` (single isomer, unassigned) [Example 144c, {2-Chloro-4-(cyclopropylamino)-3-[4-(trifluoromethyl)benzyl]quinolin-6-yl}(2,6-dimethylpyridin-3-yl)(1-methyl-1H-1,2,3-triazol-5-yl)methanol], in test [1], the Kd is 2.5 nM. Also, in test [2], the “RORγt … % inhibition @ 6 µM” value was 99% and 34 nM corresponded to half-maximal inhibition (IC50).

For `Cn1cncc1C(O)(c1ccc(C(F)(F)F)nc1)c1ccc2nc(N3CCCC3)c(Cc3ccc(-n4cccn4)cc3)c(Cl)c2c1` (single isomer, unassigned) [Example 145b, {4-Chloro-3-[4-(1H-pyrazol-1-yl)benzyl]-2-pyrrolidin-1-ylquinolin-6-yl}(1-methyl-1H-imidazol-5-yl)[6-(trifluoromethyl)pyridin-3-yl]methanol], the Kd in test [1] was 80 nM. Moreover, in test [2], half-maximal inhibition (IC50) required 230 nM and the inhibition at 6 µM was determined as 102%.

As to `Cn1cncc1C(O)(c1ccc(C(F)(F)F)nc1)c1ccc2nc(N3CCCC3)c(Cc3ccc(-n4cccn4)cc3)c(Cl)c2c1` (single isomer, unassigned) [Example 145c, {4-Chloro-3-[4-(1H-pyrazol-1-yl)benzyl]-2-pyrrolidin-1-ylquinolin-6-yl}(1-methyl-1H-imidazol-5-yl)[6-(trifluoromethyl)pyridin-3-yl]methanol], the Kd in test [1] worked out at 810 nM. For the same compound, in test [2], the “RORγt … % inhibition @ 6 µM” value was determined as 95% and half-maximal inhibition (IC50) was put at 780 nM.

Take `Cn1cncc1C(O)(c1ccc(C(F)(F)F)nc1)c1ccc2nc(N3CCOCC3)c(Cc3ccc(-n4cccn4)cc3)c(Cl)c2c1` (single isomer, unassigned) [Example 146b, {4-Chloro-2-morpholin-4-yl-3-[4-(1H-pyrazol-1-yl)benzyl]quinolin-6-yl}(1-methyl-1H-imidazol-5-yl)[6-(trifluoromethyl)pyridin-3-yl]methanol]: in test [1], the Kd amounted to 84 nM. In addition, in test [2], the IC50 was determined as 210 nM and the inhibition at 6 µM was 103%.

On to `Cn1cncc1C(O)(c1ccc(C(F)(F)F)nc1)c1ccc2nc(N3CCOCC3)c(Cc3ccc(-n4cccn4)cc3)c(Cl)c2c1` (single isomer, unassigned) [Example 146c, {4-Chloro-2-morpholin-4-yl-3-[4-(1H-pyrazol-1-yl)benzyl]quinolin-6-yl}(1-methyl-1H-imidazol-5-yl)[6-(trifluoromethyl)pyridin-3-yl]methanol], for which the Kd in test [1] is 600 nM. In test [2], the “RORγt … % inhibition @ 6 µM” value amounted to 92% and the IC50 was about 2000 nM.

In the case of `Cn1cncc1C(O)(c1ccc(C(F)(F)F)nc1)c1ccc2nc(N3CC(F)C3)c(Cc3ccc(-n4cccn4)cc3)c(Cl)c2c1` (single isomer, unassigned) [Example 147b, {4-Chloro-2-(3-fluoroazetidin-1-yl)-3-[4-(1H-pyrazol-1-yl)benzyl]quinolin-6-yl}(1-methyl-1H-imidazol-5-yl)[6-(trifluoromethyl)pyridin-3-yl]methanol], in test [1], the Kd was determined as 60 nM. For the same compound, in test [2], inhibition was half-maximal at 210 nM (IC50) and the inhibition at 6 µM was determined as 99%.
